# Data reported in patent US9149038B2, “4-amino-6-(heterocyclic)picolinates and 6-amino-2-(heterocyclic)pyrimidine-4-carboxylates and their use as herbicides” (Dow AgroSciences LLC, priority 2013, dated 2015).
# Read-outs that look alike come from different tables or passages of the source.
# Tested on: Wheat and Barley and weed species
# Assay: Post-Emergent Test III: postemergent herbicidal activity in wheat and barley, visual rating after 21 d and probit GR20/GR50/GR80/GR90 (Tables 9-13)
# Format: in vivo
# Conditions: for pest or weed control at 17.5 g/ha / pest or weed control at 35 g/ha / pest or weed control at 70 g/ha: post-emergence, 504 h
# Method in brief: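 Greenhouse plants (~18/17 °C, 14 h photoperiod) at second–third true leaf stage sprayed at 187 L/ha with a high rate and ½× to 1/16× serial dilutions. Visual injury 0–100% versus solvent-blank controls scored at 21 d; GR20, GR50, GR80 and GR90 derived by probit analysis across rates.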
structure (smiles),measurement,setting,value
"COC(=O)c1nc(-c2ccc(Br)c3c2OC(F)(F)O3)c(F)c(N)c1Cl [Compound 78, Methyl 4-amino-6-(7-bromo-2,2-difluorobenzo[d][1,3]dioxol-4-yl)-3-chloro-5-fluoropicolinate]",Visual Growth Reduction (%) 21 Days After Application CIRAR,"CIRAR Canada thistle (Cirsium arvense), 17.5 g ai/ha",B (85-94)
same,Visual Growth Reduction (%) 21 Days After Application CIRAR,"CIRAR Canada thistle (Cirsium arvense), 35 g ai/ha",B (85-94)
same,Visual Growth Reduction (%) 21 Days After Application CIRAR,"CIRAR Canada thistle (Cirsium arvense), 70 g ai/ha",B (85-94)
same,GR50 CIRAR,"CIRAR Canada thistle (Cirsium arvense), growth reduction of 50%, probit analysis",2 g ai/ha
same,GR80 CIRAR,"CIRAR Canada thistle (Cirsium arvense), growth reduction of 80%, probit analysis",7 g ai/ha
same,GR90 CIRAR,"CIRAR Canada thistle (Cirsium arvense), growth reduction of 90%, probit analysis",12 g ai/ha
same,Visual Growth Reduction (%) 21 Days After Application GALAP,"GALAP cleavers (Galium aparine), 17.5 g ai/ha",D (60-74)
same,Visual Growth Reduction (%) 21 Days After Application GALAP,"GALAP cleavers (Galium aparine), 35 g ai/ha",D (60-74)
same,Visual Growth Reduction (%) 21 Days After Application GALAP,"GALAP cleavers (Galium aparine), 70 g ai/ha",D (60-74)
same,GR50 GALAP,"GALAP cleavers (Galium aparine), growth reduction of 50%, probit analysis",1 g ai/ha
same,GR80 GALAP,"GALAP cleavers (Galium aparine), growth reduction of 80%, probit analysis",>140 g ai/ha
same,GR90 GALAP,"GALAP cleavers (Galium aparine), growth reduction of 90%, probit analysis",>140 g ai/ha
same,GR20 HORVS,"HORVS barley, spring (crop), growth reduction of 20%, probit analysis",13 g ai/ha
same,pest or weed control at 17.5 g/ha,"Hordeum vulgare, HORVS barley, spring (crop), 17.5 g ai/ha, read-out: Visual Growth Reduction (%) 21 Days After Application HORVS",30 to 44%
same,pest or weed control at 35 g/ha,"Hordeum vulgare, HORVS barley, spring (crop), 35 g ai/ha, read-out: Visual Growth Reduction (%) 21 Days After Application HORVS",45 to 59%
same,pest or weed control at 70 g/ha,"Hordeum vulgare, HORVS barley, spring (crop), 70 g ai/ha, read-out: Visual Growth Reduction (%) 21 Days After Application HORVS",60 to 74%
same,Visual Growth Reduction (%) 21 Days After Application KCHSC,"KCHSC kochia (Kochia scoparia), 17.5 g ai/ha",B (85-94)
same,Visual Growth Reduction (%) 21 Days After Application KCHSC,"KCHSC kochia (Kochia scoparia), 35 g ai/ha",A (95-100)
same,Visual Growth Reduction (%) 21 Days After Application KCHSC,"KCHSC kochia (Kochia scoparia), 70 g ai/ha",A (95-100)
same,GR50 KCHSC,"KCHSC kochia (Kochia scoparia), growth reduction of 50%, probit analysis",2 g ai/ha
same,GR80 KCHSC,"KCHSC kochia (Kochia scoparia), growth reduction of 80%, probit analysis",9 g ai/ha
same,GR90 KCHSC,"KCHSC kochia (Kochia scoparia), growth reduction of 90%, probit analysis",19 g ai/ha
same,Visual Growth Reduction (%) 21 Days After Application LAMPU,"LAMPU purple deadnettle (Lamium purpureum), 17.5 g ai/ha",D (60-74)
same,Visual Growth Reduction (%) 21 Days After Application LAMPU,"LAMPU purple deadnettle (Lamium purpureum), 35 g ai/ha",C (75-84)
same,Visual Growth Reduction (%) 21 Days After Application LAMPU,"LAMPU purple deadnettle (Lamium purpureum), 70 g ai/ha",B (85-94)
same,GR50 LAMPU,"LAMPU purple deadnettle (Lamium purpureum), growth reduction of 50%, probit analysis",2 g ai/ha
same,GR80 LAMPU,"LAMPU purple deadnettle (Lamium purpureum), growth reduction of 80%, probit analysis",46 g ai/ha
same,GR90 LAMPU,"LAMPU purple deadnettle (Lamium purpureum), growth reduction of 90%, probit analysis",>140 g ai/ha
same,Visual Growth Reduction (%) 21 Days After Application MATCH,"MATCH wild chamomile (Matricaria recutita L.), 17.5 g ai/ha",G (0-29)
same,Visual Growth Reduction (%) 21 Days After Application MATCH,"MATCH wild chamomile (Matricaria recutita L.), 35 g ai/ha",F (30-44)
same,Visual Growth Reduction (%) 21 Days After Application MATCH,"MATCH wild chamomile (Matricaria recutita L.), 70 g ai/ha",E (45-59)
same,GR50 MATCH,"MATCH wild chamomile (Matricaria recutita L.), growth reduction of 50%, probit analysis",63 g ai/ha
same,GR80 MATCH,"MATCH wild chamomile (Matricaria recutita L.), growth reduction of 80%, probit analysis",>140 g ai/ha
same,GR90 MATCH,"MATCH wild chamomile (Matricaria recutita L.), growth reduction of 90%, probit analysis",>140 g ai/ha
same,Visual Growth Reduction (%) 21 Days After Application PAPRH,"PAPRH common poppy (Papaver rhoeas), 17.5 g ai/ha",F (30-44)
same,Visual Growth Reduction (%) 21 Days After Application PAPRH,"PAPRH common poppy (Papaver rhoeas), 35 g ai/ha",D (60-74)
same,Visual Growth Reduction (%) 21 Days After Application PAPRH,"PAPRH common poppy (Papaver rhoeas), 70 g ai/ha",C (75-84)
same,GR50 PAPRH,"PAPRH common poppy (Papaver rhoeas), growth reduction of 50%, probit analysis",44 g ai/ha
same,GR80 PAPRH,"PAPRH common poppy (Papaver rhoeas), growth reduction of 80%, probit analysis",>140 g ai/ha
same,GR90 PAPRH,"PAPRH common poppy (Papaver rhoeas), growth reduction of 90%, probit analysis",>140 g ai/ha
same,Visual Growth Reduction (%) 21 Days After Application SASKR,"SASKR Russian thistle (Salsola iberica), 17.5 g ai/ha",B (85-94)
same,GR50 SASKR,"SASKR Russian thistle (Salsola iberica), growth reduction of 50%, probit analysis",0.4 g ai/ha
same,GR80 SASKR,"SASKR Russian thistle (Salsola iberica), growth reduction of 80%, probit analysis",9 g ai/ha
same,GR90 SASKR,"SASKR Russian thistle (Salsola iberica), growth reduction of 90%, probit analysis",42 g ai/ha
same,Visual Growth Reduction (%) 21 Days After Application SINAR,"SINAR wild mustard (Sinapis arvensis), 17.5 g ai/ha",A (95-100)
same,Visual Growth Reduction (%) 21 Days After Application SINAR,"SINAR wild mustard (Sinapis arvensis), 35 g ai/ha",A (95-100)
same,Visual Growth Reduction (%) 21 Days After Application SINAR,"SINAR wild mustard (Sinapis arvensis), 70 g ai/ha",A (95-100)
same,GR50 SINAR,"SINAR wild mustard (Sinapis arvensis), growth reduction of 50%, probit analysis",1 g ai/ha
same,GR80 SINAR,"SINAR wild mustard (Sinapis arvensis), growth reduction of 80%, probit analysis",3 g ai/ha
same,GR90 SINAR,"SINAR wild mustard (Sinapis arvensis), growth reduction of 90%, probit analysis",8 g ai/ha
same,GR20 TRZAS,"TRZAS wheat, spring (crop), growth reduction of 20%, probit analysis",20 g ai/ha
same,pest or weed control at 17.5 g/ha,"Triticum aestivum, TRZAS wheat, spring (crop), 17.5 g ai/ha, read-out: Visual Growth Reduction (%) 21 Days After Application TRZAS",0 to 29%
same,pest or weed control at 35 g/ha,"Triticum aestivum, TRZAS wheat, spring (crop), 35 g ai/ha, read-out: Visual Growth Reduction (%) 21 Days After Application TRZAS",30 to 44%
same,pest or weed control at 70 g/ha,"Triticum aestivum, TRZAS wheat, spring (crop), 70 g ai/ha, read-out: Visual Growth Reduction (%) 21 Days After Application TRZAS",45 to 59%
same,Visual Growth Reduction (%) 21 Days After Application VERPE,"VERPE bird's-eye speedwell (veronica persica), 17.5 g ai/ha",G (0-29)
same,Visual Growth Reduction (%) 21 Days After Application VERPE,"VERPE bird's-eye speedwell (veronica persica), 35 g ai/ha",D (60-74)
same,Visual Growth Reduction (%) 21 Days After Application VERPE,"VERPE bird's-eye speedwell (veronica persica), 70 g ai/ha",C (75-84)
same,GR50 VERPE,"VERPE bird's-eye speedwell (veronica persica), growth reduction of 50%, probit analysis",33 g ai/ha
same,GR80 VERPE,"VERPE bird's-eye speedwell (veronica persica), growth reduction of 80%, probit analysis",77 g ai/ha
same,GR90 VERPE,"VERPE bird's-eye speedwell (veronica persica), growth reduction of 90%, probit analysis",119 g ai/ha
same,Visual Growth Reduction (%) 21 Days After Application VIOTR,"VIOTR wild pansy (Viola tricolor), 17.5 g ai/ha",F (30-44)
same,Visual Growth Reduction (%) 21 Days After Application VIOTR,"VIOTR wild pansy (Viola tricolor), 35 g ai/ha",F (30-44)
same,Visual Growth Reduction (%) 21 Days After Application VIOTR,"VIOTR wild pansy (Viola tricolor), 70 g ai/ha",D (60-74)
same,GR50 VIOTR,"VIOTR wild pansy (Viola tricolor), growth reduction of 50%, probit analysis",47 g ai/ha
same,GR80 VIOTR,"VIOTR wild pansy (Viola tricolor), growth reduction of 80%, probit analysis",>140 g ai/ha
same,GR90 VIOTR,"VIOTR wild pansy (Viola tricolor), growth reduction of 90%, probit analysis",>140 g ai/ha
